Measurements: the kinase profiling compilation of Christmann-Franck et al. (2016)

What was measured:
Test in all cases: KINOMEscan competition binding
Conditions in all cases: compound 10.0 µM
ACVR2B (human) = ACVR2B (human) (UniProt Q13705)
AXL (human) = AXL (human) (UniProt P30530)
CAMK2A (human) = CAMK2A (human) (UniProt Q9UQM7)
CDK11B (human) = CDK11B (human) (UniProt P21127)
CSNK1G3 (human) = CSNK1G3 (human) (UniProt Q9Y6M4)
EPHA5 (human) = EPHA5 (human) (UniProt P54756)
FER (human) = FER (human) (UniProt P16591)
FES (human) = FES (human) (UniProt P07332)
GSK3A (human) = GSK3A (human) (UniProt P49840)
IKBKB (human) = IKBKB (human) (UniProt O14920)
ITK (human) = ITK (human) (UniProt Q08881)
[1] = target: JAK1 JH2 pseudokinase (human) (UniProt P23458)
[2] = test system: KIT (human), P10721 [D816V]
LCK (human) = LCK (human) (UniProt P06239)
LIMK2 (human) = LIMK2 (human) (UniProt P53671)
MAP2K3 (human) = MAP2K3 (human) (UniProt P46734)
MAP3K12 (human) = MAP3K12 (human) (UniProt Q12852)
MAP3K3 (human) = MAP3K3 (human) (UniProt Q99759)
MAPK15 (human) = MAPK15 (human) (UniProt Q8TD08)
MAPK6 (human) = MAPK6 (human) (UniProt Q16659)
MARK4 (human) = MARK4 (human) (UniProt Q96L34)
MST4 (human) = MST4 (human) (UniProt Q9P289)
MYLK4 (human) = MYLK4 (human) (UniProt Q86YV6)
NEK5 (human) = NEK5 (human) (UniProt Q6P3R8)
NUAK2 (human) = NUAK2 (human) (UniProt Q9H093)
PAK2 (human) = PAK2 (human) (UniProt Q13177)
PDGFRB (human) = PDGFRB (human) (UniProt P09619)
PIK3CD (human) = PIK3CD (human) (UniProt O00329)
PIP5K1A (human) = PIP5K1A (human) (UniProt Q99755)
PRKD1 (human) = PRKD1 (human) (UniProt Q15139)
PRKG2 (human) = PRKG2 (human) (UniProt Q13237)
ROCK2 (human) = ROCK2 (human) (UniProt O75116)
ROS1 (human) = ROS1 (human) (UniProt P08922)
RPS6KA5 KD2 (human) = RPS6KA5 KD2 (human) (UniProt O75582)
SIK1 (human) = SIK1 (human) (UniProt P57059)
TEC (human) = TEC (human) (UniProt P42680)
TEK (human) = TEK (human) (UniProt Q02763)
TESK1 (human) = TESK1 (human) (UniProt Q15569)
TGFBR2 (human) = TGFBR2 (human) (UniProt P37173)
TXK (human) = TXK (human) (UniProt P42681)
Sequence of TXK (human) (P42681 whole entry, looked up): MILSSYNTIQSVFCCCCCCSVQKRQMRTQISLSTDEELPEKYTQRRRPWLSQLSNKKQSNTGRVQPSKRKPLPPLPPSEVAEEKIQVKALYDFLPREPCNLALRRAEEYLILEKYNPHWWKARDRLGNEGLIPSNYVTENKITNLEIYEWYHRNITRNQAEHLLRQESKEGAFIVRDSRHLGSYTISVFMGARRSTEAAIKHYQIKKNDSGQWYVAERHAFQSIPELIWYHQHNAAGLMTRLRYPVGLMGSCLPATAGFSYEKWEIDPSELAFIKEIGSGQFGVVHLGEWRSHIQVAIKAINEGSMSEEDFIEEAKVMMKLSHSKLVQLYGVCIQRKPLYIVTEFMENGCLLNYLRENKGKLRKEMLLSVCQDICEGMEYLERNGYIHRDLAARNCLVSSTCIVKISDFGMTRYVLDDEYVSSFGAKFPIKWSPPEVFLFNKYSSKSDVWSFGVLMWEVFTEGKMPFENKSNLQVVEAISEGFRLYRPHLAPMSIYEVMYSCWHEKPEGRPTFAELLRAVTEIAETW

Sequence of FER (human) (P16591 whole entry, looked up): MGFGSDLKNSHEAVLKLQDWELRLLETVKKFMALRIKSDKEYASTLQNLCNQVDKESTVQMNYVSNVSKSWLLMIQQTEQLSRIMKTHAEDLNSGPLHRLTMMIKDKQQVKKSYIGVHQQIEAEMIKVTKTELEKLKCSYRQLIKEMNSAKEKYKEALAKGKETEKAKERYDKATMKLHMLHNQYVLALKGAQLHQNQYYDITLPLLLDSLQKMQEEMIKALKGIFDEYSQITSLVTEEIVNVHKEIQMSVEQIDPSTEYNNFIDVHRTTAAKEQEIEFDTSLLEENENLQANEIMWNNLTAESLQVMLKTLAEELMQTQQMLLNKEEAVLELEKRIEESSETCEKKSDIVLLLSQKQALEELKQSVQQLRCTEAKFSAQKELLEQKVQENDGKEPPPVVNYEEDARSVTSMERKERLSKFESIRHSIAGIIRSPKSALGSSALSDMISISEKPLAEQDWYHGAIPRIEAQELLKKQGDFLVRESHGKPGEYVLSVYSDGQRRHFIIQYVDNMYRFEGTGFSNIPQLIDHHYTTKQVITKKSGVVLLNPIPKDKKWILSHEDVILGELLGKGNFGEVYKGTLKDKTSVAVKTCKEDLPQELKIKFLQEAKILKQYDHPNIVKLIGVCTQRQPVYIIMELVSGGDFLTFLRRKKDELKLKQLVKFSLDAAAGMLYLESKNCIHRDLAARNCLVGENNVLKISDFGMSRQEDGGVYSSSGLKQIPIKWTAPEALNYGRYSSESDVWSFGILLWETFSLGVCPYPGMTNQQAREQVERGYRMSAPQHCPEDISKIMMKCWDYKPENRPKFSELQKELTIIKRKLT
Sequence of NEK5 (human) (Q6P3R8 whole entry, looked up): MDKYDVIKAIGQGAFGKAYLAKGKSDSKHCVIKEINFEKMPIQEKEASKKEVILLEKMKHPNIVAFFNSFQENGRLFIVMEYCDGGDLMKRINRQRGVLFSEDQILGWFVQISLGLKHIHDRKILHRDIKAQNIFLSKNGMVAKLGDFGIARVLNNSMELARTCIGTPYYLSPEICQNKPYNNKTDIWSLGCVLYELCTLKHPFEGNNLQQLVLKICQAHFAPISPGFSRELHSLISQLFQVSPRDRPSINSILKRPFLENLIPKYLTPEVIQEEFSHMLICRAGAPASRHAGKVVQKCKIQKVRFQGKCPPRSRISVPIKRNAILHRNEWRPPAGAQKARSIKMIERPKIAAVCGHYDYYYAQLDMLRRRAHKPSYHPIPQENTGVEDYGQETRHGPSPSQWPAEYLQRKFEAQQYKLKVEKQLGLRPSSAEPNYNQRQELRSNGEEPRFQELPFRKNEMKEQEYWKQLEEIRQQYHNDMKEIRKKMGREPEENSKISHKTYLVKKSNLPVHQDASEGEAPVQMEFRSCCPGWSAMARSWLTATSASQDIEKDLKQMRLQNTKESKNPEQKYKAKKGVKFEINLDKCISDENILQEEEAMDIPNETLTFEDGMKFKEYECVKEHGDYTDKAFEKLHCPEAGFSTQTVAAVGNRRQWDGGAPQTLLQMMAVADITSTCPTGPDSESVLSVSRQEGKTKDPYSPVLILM
Sequence of MAP2K3 (human) (P46734 whole entry, looked up): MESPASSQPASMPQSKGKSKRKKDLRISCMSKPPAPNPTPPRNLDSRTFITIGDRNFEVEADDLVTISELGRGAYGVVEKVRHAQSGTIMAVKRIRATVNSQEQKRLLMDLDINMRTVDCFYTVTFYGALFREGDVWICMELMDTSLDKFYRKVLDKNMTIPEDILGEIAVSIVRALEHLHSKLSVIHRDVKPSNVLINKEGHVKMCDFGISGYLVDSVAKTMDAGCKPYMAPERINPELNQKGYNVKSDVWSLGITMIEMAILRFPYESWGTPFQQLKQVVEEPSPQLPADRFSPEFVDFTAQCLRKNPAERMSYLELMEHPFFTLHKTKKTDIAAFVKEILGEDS
Sequence of TGFBR2 (human) (P37173 whole entry, looked up): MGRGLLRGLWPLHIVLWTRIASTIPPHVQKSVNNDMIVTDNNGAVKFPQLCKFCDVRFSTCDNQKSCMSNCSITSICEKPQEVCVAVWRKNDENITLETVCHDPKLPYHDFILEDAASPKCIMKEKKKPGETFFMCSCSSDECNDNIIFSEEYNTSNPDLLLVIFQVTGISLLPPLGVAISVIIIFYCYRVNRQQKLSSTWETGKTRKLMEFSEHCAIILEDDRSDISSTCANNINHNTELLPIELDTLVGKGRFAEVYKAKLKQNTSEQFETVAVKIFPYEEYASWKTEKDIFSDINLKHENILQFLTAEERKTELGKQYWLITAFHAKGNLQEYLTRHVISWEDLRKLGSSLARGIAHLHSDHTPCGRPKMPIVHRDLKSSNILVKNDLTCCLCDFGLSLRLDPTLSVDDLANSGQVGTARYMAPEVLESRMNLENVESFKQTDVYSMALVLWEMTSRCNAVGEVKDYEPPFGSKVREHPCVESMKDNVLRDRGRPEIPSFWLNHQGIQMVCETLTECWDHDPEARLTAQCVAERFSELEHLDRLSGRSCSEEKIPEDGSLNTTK
Sequence of SIK1 (human) (P57059 whole entry, looked up): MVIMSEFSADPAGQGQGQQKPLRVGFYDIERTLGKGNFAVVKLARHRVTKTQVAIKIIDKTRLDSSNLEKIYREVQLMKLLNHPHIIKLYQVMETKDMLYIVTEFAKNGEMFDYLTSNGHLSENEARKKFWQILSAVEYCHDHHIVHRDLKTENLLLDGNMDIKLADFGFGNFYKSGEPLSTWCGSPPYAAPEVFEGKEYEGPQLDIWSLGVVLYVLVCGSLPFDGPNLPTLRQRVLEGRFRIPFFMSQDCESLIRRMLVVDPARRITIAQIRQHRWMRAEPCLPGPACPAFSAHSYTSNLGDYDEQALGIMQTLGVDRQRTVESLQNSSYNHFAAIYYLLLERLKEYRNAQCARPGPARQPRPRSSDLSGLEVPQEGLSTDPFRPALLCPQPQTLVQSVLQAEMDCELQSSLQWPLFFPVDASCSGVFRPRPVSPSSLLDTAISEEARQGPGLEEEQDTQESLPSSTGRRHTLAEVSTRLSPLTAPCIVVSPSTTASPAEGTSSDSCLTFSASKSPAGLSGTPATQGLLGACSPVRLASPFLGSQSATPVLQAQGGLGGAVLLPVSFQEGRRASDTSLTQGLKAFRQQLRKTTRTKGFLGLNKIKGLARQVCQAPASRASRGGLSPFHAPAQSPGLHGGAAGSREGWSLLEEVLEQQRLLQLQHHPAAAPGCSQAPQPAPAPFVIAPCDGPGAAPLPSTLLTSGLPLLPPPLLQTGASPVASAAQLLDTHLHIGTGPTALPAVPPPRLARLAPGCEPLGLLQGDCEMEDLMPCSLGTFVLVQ
Sequence of PDGFRB (human) (P09619 whole entry, looked up): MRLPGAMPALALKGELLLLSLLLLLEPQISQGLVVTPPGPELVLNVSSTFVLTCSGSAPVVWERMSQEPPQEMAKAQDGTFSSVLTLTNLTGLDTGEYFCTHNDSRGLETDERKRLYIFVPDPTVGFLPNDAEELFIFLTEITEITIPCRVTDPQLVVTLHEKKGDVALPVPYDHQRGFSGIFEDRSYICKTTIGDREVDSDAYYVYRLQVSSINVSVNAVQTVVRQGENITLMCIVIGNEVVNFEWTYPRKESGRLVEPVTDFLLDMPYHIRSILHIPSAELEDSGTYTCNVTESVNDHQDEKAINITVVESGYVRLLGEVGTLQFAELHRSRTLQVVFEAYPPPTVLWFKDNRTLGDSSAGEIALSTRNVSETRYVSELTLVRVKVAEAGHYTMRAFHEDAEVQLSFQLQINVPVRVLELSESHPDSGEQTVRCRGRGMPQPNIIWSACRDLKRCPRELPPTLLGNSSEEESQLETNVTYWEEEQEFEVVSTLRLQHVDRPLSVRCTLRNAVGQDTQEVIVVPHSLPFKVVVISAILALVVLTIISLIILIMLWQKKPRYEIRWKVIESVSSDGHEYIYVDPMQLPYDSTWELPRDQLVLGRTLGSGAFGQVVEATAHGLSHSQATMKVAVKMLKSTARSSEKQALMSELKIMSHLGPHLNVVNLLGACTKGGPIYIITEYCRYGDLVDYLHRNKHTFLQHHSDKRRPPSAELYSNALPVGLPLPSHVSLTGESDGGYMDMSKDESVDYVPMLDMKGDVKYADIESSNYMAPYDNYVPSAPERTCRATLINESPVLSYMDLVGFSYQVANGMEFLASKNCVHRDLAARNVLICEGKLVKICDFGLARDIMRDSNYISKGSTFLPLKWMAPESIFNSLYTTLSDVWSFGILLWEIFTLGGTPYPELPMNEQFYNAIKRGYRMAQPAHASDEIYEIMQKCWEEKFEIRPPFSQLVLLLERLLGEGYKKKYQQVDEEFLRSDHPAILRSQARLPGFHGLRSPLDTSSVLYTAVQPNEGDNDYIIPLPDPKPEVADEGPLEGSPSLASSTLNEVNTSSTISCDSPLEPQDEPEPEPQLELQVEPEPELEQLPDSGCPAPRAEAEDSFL

SMILES | kinase still bound, per cent of control (ACVR2B (human)) | kinase still bound, per cent of control (AXL (human)) | kinase still bound, per cent of control (CAMK2A (human)) | kinase still bound, per cent of control (CDK11B (human)) | kinase still bound, per cent of control (CSNK1G3 (human)) | kinase still bound, per cent of control (EPHA5 (human)) | kinase still bound, per cent of control (FER (human)) | kinase still bound, per cent of control (FES (human)) | kinase still bound, per cent of control (GSK3A (human)) | kinase still bound, per cent of control (IKBKB (human)) | kinase still bound, per cent of control (ITK (human)) | kinase still bound, per cent of control [1] | kinase still bound, per cent of control [2] | kinase still bound, per cent of control (LCK (human)) | kinase still bound, per cent of control (LIMK2 (human)) | kinase still bound, per cent of control (MAP2K3 (human)) | kinase still bound, per cent of control (MAP3K12 (human)) | kinase still bound, per cent of control (MAP3K3 (human)) | kinase still bound, per cent of control (MAPK15 (human)) | kinase still bound, per cent of control (MAPK6 (human)) | other results
CCN1CCN(Cc2ccc(Nc3ncc4c(n3)N(C)c3ccccc3C(=O)N4C)cc2C(F)(F)F)CC1 | 29% | 11% | 53% | 99% | 5.4% | 100% | 100% | 100% | 100% | 100% | 100% | 0.1% | 46% | 5% | 85% | 74% | 49% | 0.65% | 100% | 20% | kinase still bound, per cent of control (MARK4 (human)): 19%; kinase still bound, per cent of control (MST4 (human)): 5.6%; kinase still bound, per cent of control (MYLK4 (human)): 99%; kinase still bound, per cent of control (NEK5 (human)): 77%; kinase still bound, per cent of control (NUAK2 (human)): 6.6%; kinase still bound, per cent of control (PAK2 (human)): 78%; kinase still bound, per cent of control (PDGFRB (human)): 56%; kinase still bound, per cent of control (PIK3CD (human)): 0%; kinase still bound, per cent of control (PIP5K1A (human)): 5%; kinase still bound, per cent of control (PRKD1 (human)): 17%; kinase still bound, per cent of control (PRKG2 (human)): 86%; kinase still bound, per cent of control (ROCK2 (human)): 100%; kinase still bound, per cent of control (ROS1 (human)): 11%; kinase still bound, per cent of control (RPS6KA5 KD2 (human)): 100%; kinase still bound, per cent of control (SIK1 (human)): 27%; kinase still bound, per cent of control (TEC (human)): 99%; kinase still bound, per cent of control (TEK (human)): 85%; kinase still bound, per cent of control (TESK1 (human)): 73%; kinase still bound, per cent of control (TGFBR2 (human)): 94%; kinase still bound, per cent of control (TXK (human)): 34%
O=C(NOC[C@H](O)CO)c1ccc(F)c(F)c1Nc1ccc(I)cc1F | 66% | 83% | 100% | 97% | 67% | 96% | 100% | 100% | 90% | 79% | 97% | 100% | 87% | 88% | 100% | 89% | 78% | 98% | 100% | 83% | kinase still bound, per cent of control (MARK4 (human)): 100%; kinase still bound, per cent of control (MST4 (human)): 77%; kinase still bound, per cent of control (MYLK4 (human)): 100%; kinase still bound, per cent of control (NEK5 (human)): 78%; kinase still bound, per cent of control (NUAK2 (human)): 99%; kinase still bound, per cent of control (PAK2 (human)): 93%; kinase still bound, per cent of control (PDGFRB (human)): 66%; kinase still bound, per cent of control (PIK3CD (human)): 40%; kinase still bound, per cent of control (PIP5K1A (human)): 91%; kinase still bound, per cent of control (PRKD1 (human)): 100%; kinase still bound, per cent of control (PRKG2 (human)): 86%; kinase still bound, per cent of control (ROCK2 (human)): 100%; kinase still bound, per cent of control (ROS1 (human)): 92%; kinase still bound, per cent of control (RPS6KA5 KD2 (human)): 100%; kinase still bound, per cent of control (SIK1 (human)): 100%; kinase still bound, per cent of control (TEC (human)): 100%; kinase still bound, per cent of control (TEK (human)): 100%; kinase still bound, per cent of control (TESK1 (human)): 98%; kinase still bound, per cent of control (TGFBR2 (human)): 100%; kinase still bound, per cent of control (TXK (human)): 100%
O=C1Nc2ccc(I)cc2/C1=C/c1cc(Br)c(O)c(Br)c1 | 83% | 100% | 20% | 100% | 94% | 91% | 100% | 95% | 100% | 100% | 96% | 0.55% | 79% | 38% | 77% | 46% | 80% | 92% | 61% | 100% | kinase still bound, per cent of control (MARK4 (human)): 100%; kinase still bound, per cent of control (MST4 (human)): 100%; kinase still bound, per cent of control (MYLK4 (human)): 14%; kinase still bound, per cent of control (NEK5 (human)): 87%; kinase still bound, per cent of control (NUAK2 (human)): 75%; kinase still bound, per cent of control (PAK2 (human)): 53%; kinase still bound, per cent of control (PDGFRB (human)): 5.5%; kinase still bound, per cent of control (PIK3CD (human)): 81%; kinase still bound, per cent of control (PIP5K1A (human)): 19%; kinase still bound, per cent of control (PRKD1 (human)): 100%; kinase still bound, per cent of control (PRKG2 (human)): 83%; kinase still bound, per cent of control (ROCK2 (human)): 55%; kinase still bound, per cent of control (ROS1 (human)): 99%; kinase still bound, per cent of control (RPS6KA5 KD2 (human)): 63%; kinase still bound, per cent of control (SIK1 (human)): 83%; kinase still bound, per cent of control (TEC (human)): 100%; kinase still bound, per cent of control (TEK (human)): 100%; kinase still bound, per cent of control (TESK1 (human)): 100%; kinase still bound, per cent of control (TGFBR2 (human)): 56%; kinase still bound, per cent of control (TXK (human)): 100%
